One block for each compound: values may come before it.
Key:
[1] = biological target: CDK5 C157 (Q00535) (Homo sapiens, UniProt Q00535); experiment: Competitive isoTOP-ABPP, cell lysates; assay type: binding; details: for isoTOP-ABPP reactivity ratio, Q00535_C157 / isoTOP-ABPP reactivity profile ratio, Q00535_C157: 500 μm
[2] = biological target: T1, IREB2 C137 (P48200) (Homo sapiens, UniProt P48200); experiment: Competitive isoTOP-ABPP, cell lysates; assay type: binding
T1 sequence (P48200 1-963): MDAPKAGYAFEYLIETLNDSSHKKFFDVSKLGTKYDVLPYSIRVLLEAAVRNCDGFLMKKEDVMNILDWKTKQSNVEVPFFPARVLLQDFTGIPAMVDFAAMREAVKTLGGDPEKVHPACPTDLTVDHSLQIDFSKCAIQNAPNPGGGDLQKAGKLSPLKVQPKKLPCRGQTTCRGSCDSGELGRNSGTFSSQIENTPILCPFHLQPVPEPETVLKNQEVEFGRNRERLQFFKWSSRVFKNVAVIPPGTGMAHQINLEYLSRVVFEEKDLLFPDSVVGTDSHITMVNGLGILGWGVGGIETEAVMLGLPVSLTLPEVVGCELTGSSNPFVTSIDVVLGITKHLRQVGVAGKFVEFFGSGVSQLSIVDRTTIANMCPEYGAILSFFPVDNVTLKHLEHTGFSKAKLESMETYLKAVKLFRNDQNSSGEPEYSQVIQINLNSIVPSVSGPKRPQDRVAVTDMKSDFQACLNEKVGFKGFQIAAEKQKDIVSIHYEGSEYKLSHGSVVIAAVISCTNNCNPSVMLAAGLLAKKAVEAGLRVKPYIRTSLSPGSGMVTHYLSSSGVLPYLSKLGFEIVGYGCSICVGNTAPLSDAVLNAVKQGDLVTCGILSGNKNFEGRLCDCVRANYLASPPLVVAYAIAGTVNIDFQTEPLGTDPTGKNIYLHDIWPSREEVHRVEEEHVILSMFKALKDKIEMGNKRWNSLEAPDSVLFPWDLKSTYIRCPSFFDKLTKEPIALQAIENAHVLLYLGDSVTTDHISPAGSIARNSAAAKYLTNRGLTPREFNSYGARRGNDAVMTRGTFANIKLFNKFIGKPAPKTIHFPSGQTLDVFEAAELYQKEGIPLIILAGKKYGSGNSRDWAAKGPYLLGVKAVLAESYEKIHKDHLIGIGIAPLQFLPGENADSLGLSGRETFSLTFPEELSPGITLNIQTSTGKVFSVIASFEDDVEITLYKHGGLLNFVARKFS

Chain of CDK5 C157 (Q00535) (Q00535 whole entry): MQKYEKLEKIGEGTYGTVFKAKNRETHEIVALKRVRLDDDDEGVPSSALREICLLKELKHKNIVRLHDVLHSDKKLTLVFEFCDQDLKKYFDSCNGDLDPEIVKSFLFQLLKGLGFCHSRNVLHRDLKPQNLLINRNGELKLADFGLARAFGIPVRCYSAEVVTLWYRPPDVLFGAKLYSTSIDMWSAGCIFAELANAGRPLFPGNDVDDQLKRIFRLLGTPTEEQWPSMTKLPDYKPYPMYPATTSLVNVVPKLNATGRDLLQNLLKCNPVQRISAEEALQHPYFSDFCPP

Compound: O=C(CCl)N1CCN(S(=O)(=O)c2ccccc2F)CC1 [compound 10]
- isoTOP-ABPP ratio, P48200_C137 ([2]; 500 μM, invitro, ramos): 2.1

Compound: Cn1cc(S(=O)(=O)N2CCOCC2)cc1C(=O)NC(=O)CCl [compound 11]
- isoTOP-ABPP ratio, Q00535_C157 ([1]; 500 μM, invitro, ramos): 1.3
- isoTOP-ABPP ratio, P48200_C137 ([2]; 500 μM, invitro, ramos): 3.7

Compound: O=C(CCl)NC(=O)NC12CC3CC(CC(C3)C1)C2 [compound 12]
- isoTOP-ABPP ratio, Q00535_C157 ([1]; 500 μM, invitro, ramos): 1.0

Compound: O=C(CCl)N1CCC(C(O)(c2ccccc2)c2ccccc2)CC1 [compound 20]
- isoTOP-ABPP ratio (reactivity profile), Q00535_C157 ([1]; 500 μm in-vitro ramos): 2.0
- isoTOP-ABPP ratio (reactivity profile), P48200_C137 ([2]; 500 μm in-vitro ramos): 5.2

Compound: O=C(CCl)N1CCOCC1 [compound 22]
- isoTOP-ABPP ratio (reactivity profile), Q00535_C157 ([1]; 500 μm in-vitro ramos): 0.9

Compound: N#C/C(=C\c1cc(C(F)(F)F)cc(C(F)(F)F)c1)C(N)=O [compound 23]
- isoTOP-ABPP ratio (reactivity profile), Q00535_C157 ([1]; 500 μm in-vitro ramos): 2.8
- isoTOP-ABPP ratio (reactivity profile), P48200_C137 ([2]; 500 μm in-vitro ramos): 1.6

Compound: O=C(/C=C/c1ccccc1)Nc1cc(C(F)(F)F)cc(C(F)(F)F)c1 [compound 26]
- isoTOP-ABPP ratio (reactivity profile), Q00535_C157 ([1]; 500 μm in-vitro ramos): 0.9

Compound: CC(C)CCOCCNC(=O)CCl [compound 27]
- isoTOP-ABPP ratio (reactivity profile), Q00535_C157 ([1]; 500 μm in-vitro ramos): 1.0
- isoTOP-ABPP ratio (reactivity profile), P48200_C137 ([2]; 500 μm in-vitro ramos_231): 1.4

Compound: C=CC(=O)N(Cc1cccnc1)c1cc(C(F)(F)F)cc(C(F)(F)F)c1 [compound 31]
- isoTOP-ABPP reactivity ratio, Q00535_C157 ([1]; in-vitro_ramos): 1.1

Compound: O=C(CCl)N(Cc1ccc(F)cc1)C12CC3CC(CC(C3)C1)C2 [compound 34]
- isoTOP-ABPP reactivity ratio, Q00535_C157 ([1]; in-vitro_ramos_231): 0.7

Compound: C=CC(=O)N1CCC(c2noc3ccc(F)cc23)CC1 [compound 37]
- isoTOP-ABPP reactivity ratio, P48200_C137 ([2]; 500 μm, in-vitro_ramos): 0.9

Compound: C=CC(=O)Nc1cc(F)c(N2CCN(C(=O)OC(C)(C)C)CC2)c(F)c1 [compound 38]
- isoTOP-ABPP reactivity ratio, Q00535_C157 ([1]; in-vitro_ramos_231): 0.9

Compound: C=CC(=O)Nc1cc(C)c(Br)cc1C [compound 40]
- isoTOP-ABPP reactivity ratio, P48200_C137 ([2]; 500 μm, in-vitro_ramos): 1.1

Compound: Cc1ccc(C=C(C#N)C(=O)NCCN2CCOCC2)cc1 [compound 41]
- isoTOP-ABPP reactivity ratio, Q00535_C157 ([1]; in-vitro_ramos_231): 1.5
- isoTOP-ABPP reactivity ratio, P48200_C137 ([2]; 500 μm, in-vitro_ramos_231): 1.2

Compound: C=CC(=O)N1CCC(Cc2ccccc2)CC1 [compound 53]
- isoTOP-ABPP reactivity profile ratio, Q00535_C157 ([1]; in-vitro_ramos): 0.8
- isoTOP-ABPP reactivity profile ratio, Q00535_C157 ([1]; in-vitro_ramos_231): 1.2

Results, then the compound that gave them:

- R value (DMSO/fragment) ([1]; 500 μM, invitro, ramos): 3.2
- R value (DMSO/fragment) ([2]; 500 μM, invitro, ramos): 10.5
Compound: COc1ccc2c(c1)CCCN2C(=O)CCl [compound 2]

- R value (DMSO/fragment) ([1]; 500 μM, invitro, ramos): 20.0
Compound: O=C(CCl)Nc1cc(C(F)(F)F)cc(C(F)(F)F)c1 [compound 3]

- R value (DMSO/fragment) ([1]; 250 μM, in vitro, Ramos): 1.3
Compound: COc1ccc(C2CC(c3cccs3)=NN2C(=O)CCl)cc1 (centres unmarked) [compound 4]

- isoTOP-ABPP ratio, Q00535_C157 ([1]; 500 μM, invitro, ramos): 20.0
Compound: C=CC(=O)N(c1ccccc1)c1ccc(Br)cc1 [compound 5]

- isoTOP-ABPP ratio (reactivity profile), P48200_C137 ([2]; 500 μm in-vitro ramos): 2.0
Compound: C=CC(=O)N(Cc1cccnc1)c1ccc(Oc2ccccc2)c(C(F)(F)F)c1 [compound 15]

- isoTOP-ABPP ratio (reactivity profile), Q00535_C157 ([1]; 500 μm in-vitro ramos): 1.0
- isoTOP-ABPP ratio (reactivity profile), Q00535_C157 ([1]; 500 μm in-vitro ramos_231): 0.9
Compound: COc1ccccc1OCCNC(=O)CCl [compound 28]

- isoTOP-ABPP reactivity ratio, Q00535_C157 ([1]; in-vitro_ramos): 1.7
- isoTOP-ABPP reactivity ratio, Q00535_C157 ([1]; in-vitro_ramos_231): 1.7
Compound: CC(C)(C)c1cc(NC(=O)CCl)on1 [compound 32]

- isoTOP-ABPP reactivity ratio, P48200_C137 ([2]; 500 μm, in-vitro_ramos): 1.1
Compound: O=C(CCl)Nc1ccccc1C1CCCCCC1 [compound 35]

- isoTOP-ABPP reactivity profile ratio, Q00535_C157 ([1]; in-vitro_ramos): 1.2
Compound: COc1cc(NC(=O)CCl)cc(OC)c1 [compound 43]

- isoTOP-ABPP reactivity profile ratio, Q00535_C157 ([1]; in-vitro_ramos): 1.0
Compound: O=C(CCl)Nc1cccc2ncccc12 [compound 51]

- isoTOP-ABPP reactivity profile ratio, P48200_C137 ([2]; 500 μm, in-vitro_ramos): 1.3
Compound: O=C(CCl)Nc1ccc(-c2ccccc2)cc1 [compound 52]

Source: patent publication US10670605B2, “Cysteine reactive probes and uses thereof” (The Scripps Research Institute, priority 2015, dated 2020)
